What was measured:
DAT = DAT (Rattus norvegicus, UniProt P23977); type: binding; conditions: for improvement in DAT affinity vs unsubstituted analogue: 4i vs 4g, 6c vs 6a
SERT = SERT (Rattus norvegicus, UniProt P31652); type: binding; conditions: for increase in SERT affinity vs unsubstituted analogue: 4i vs 4g, 6c vs 6a; for displacement at the SERT: rat brain membranes
NET = NET (Rattus norvegicus, UniProt Q63380); test: biochemical; type: binding; conditions: 3 h, read-out: Ki [SE interval] NET
NCCc1c[nH]c2ccc(O)cc12 = test: cells, lysate or membranes; conditions: pH 7.4; 37.0 °C

SERT, sequence (P31652 whole entry): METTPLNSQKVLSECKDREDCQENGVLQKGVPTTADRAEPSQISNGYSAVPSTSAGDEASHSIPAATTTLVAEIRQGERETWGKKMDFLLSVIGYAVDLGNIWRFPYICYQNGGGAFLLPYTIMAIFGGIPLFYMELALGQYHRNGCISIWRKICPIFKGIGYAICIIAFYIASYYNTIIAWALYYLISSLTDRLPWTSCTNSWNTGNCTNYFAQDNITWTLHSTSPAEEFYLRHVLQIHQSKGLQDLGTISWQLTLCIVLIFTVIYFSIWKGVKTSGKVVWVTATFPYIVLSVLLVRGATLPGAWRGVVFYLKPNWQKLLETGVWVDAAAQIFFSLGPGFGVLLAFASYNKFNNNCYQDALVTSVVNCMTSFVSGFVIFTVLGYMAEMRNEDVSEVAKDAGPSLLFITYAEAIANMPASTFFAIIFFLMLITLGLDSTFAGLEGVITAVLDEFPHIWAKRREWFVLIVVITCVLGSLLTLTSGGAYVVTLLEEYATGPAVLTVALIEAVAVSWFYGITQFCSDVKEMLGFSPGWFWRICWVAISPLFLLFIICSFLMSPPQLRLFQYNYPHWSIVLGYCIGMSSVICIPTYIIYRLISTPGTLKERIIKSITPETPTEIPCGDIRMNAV
NET, sequence (Q63380 1-617): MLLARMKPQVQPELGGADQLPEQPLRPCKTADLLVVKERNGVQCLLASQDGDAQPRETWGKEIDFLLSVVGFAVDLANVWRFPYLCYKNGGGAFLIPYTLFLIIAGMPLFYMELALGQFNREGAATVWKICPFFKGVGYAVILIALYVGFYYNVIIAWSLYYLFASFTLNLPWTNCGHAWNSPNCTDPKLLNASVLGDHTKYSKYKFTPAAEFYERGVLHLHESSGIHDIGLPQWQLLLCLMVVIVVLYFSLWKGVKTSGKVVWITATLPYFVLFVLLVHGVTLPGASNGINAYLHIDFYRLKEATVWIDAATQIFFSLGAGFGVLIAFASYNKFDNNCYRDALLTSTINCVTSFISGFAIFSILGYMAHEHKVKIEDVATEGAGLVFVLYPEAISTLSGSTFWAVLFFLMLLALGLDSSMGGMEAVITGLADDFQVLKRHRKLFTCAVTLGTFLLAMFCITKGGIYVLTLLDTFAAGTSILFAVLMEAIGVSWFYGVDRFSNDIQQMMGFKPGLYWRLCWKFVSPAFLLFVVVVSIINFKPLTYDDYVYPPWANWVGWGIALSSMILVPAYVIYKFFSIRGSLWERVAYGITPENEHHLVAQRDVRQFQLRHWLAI
DAT, sequence (P23977 whole entry): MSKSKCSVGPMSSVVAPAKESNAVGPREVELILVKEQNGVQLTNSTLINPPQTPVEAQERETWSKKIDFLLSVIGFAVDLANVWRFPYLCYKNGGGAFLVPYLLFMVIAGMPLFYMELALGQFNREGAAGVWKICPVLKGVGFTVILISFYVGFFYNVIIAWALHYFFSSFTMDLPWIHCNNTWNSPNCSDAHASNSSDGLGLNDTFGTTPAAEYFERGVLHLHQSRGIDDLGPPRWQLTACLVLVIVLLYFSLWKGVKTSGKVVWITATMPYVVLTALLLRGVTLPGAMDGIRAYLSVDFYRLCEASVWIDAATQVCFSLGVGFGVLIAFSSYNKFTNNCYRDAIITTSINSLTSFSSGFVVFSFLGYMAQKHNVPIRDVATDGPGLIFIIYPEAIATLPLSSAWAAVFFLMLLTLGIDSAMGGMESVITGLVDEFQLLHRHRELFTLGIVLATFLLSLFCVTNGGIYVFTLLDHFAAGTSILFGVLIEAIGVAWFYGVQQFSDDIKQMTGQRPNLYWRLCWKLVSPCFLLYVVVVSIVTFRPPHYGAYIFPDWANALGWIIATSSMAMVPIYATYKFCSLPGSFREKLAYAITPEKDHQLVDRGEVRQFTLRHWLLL

In the case of NCCSC(c1ccccc1)c1ccccc1 [6a, 2-(Benzhydrylthio)ethan-1-amine], the “improved DAT affinity compared to (±)-1” value (DAT) is reported as “about 20 fold”.

For CNC(=O)CSC(c1ccc(Br)cc1)c1ccc(Br)cc1 [4i, 2-((Bis(4-bromophenyl)methyl)thio)-N-methylacetamide], the “increase in SERT affinity vs unsubstituted analogue” value (SERT) was greater than 50 fold and the “improvement in DAT affinity vs unsubstituted analogue” value (DAT) was 6 fold.

In the case of O=C(CSC(c1ccccc1)c1ccccc1)NCC1CC1 [4o, 2-(Benzhydrylthio)-N-(cyclopropylmethyl)acetamide], the inhibition (NET) is reported as less than 50%.

In the case of NC(=O)C[S+]([O-])C(c1ccccc1)c1cccc(Br)c1 (stereo not drawn) [5e, 2-(((3-Bromophenyl)phenylmethyl)sulfinyl)acetamide], the “displacement at the SERT” value (SERT) is reported as “no displacement” and the inhibition (NET) is reported as less than 50%.

NC(=O)CSC(c1ccccc1)c1ccccc1 [4a, 2-(Benzhydrylthio)acetamide] showed an inhibition (NET) of less than 50%.

For hSERT-WT (Homo sapiens), the Km (NCCc1c[nH]c2ccc(O)cc12) was 520 [360–760] nM.

O=C(CSC(c1ccccc1)c1ccccc1)NCCCc1ccccc1 [4u, 2-(Benzhydrylthio)-N-(3-phenylpropyl)acetamide] showed an inhibition at 100 µM (NET) of less than 50%.

Molecule CCCCNC(=O)CSC(c1ccccc1)c1ccccc1 [4r, 2-(Benzhydrylthio)-N-butylacetamide] has an inhibition (NET) of less than 50%.

Molecule C=CCNC(=O)CSC(c1ccccc1)c1ccccc1 [4j, N-Allyl-2-(benzhydrylthio)acetamide] has an inhibition (NET) of less than 50%.

For O=C(CSC(c1ccc(Br)cc1)c1ccc(Br)cc1)NCCCCc1ccccc1 [4z, 2-((Bis(4-bromophenyl)methyl)thio)-N-(4-phenylbutyl)acetamide], the “displacement at the SERT” value (SERT) was “no displacement” and the inhibition at 100 µM (NET) was less than 50%.

O=C(C[S+]([O-])C(c1ccc(Br)cc1)c1ccc(Br)cc1)NCCCc1ccccc1 (stereo not drawn) [5g, 2-((Bis(4-bromophenyl)methyl)sulfinyl)-N-(3-phenylpropyl)acetamide] was tested, and the inhibition at 100 µM (NET) was less than 50%.

With NC(=O)C[S+]([O-])C(c1cccc(F)c1)c1cccc(F)c1 (stereo not drawn) [5c, 2-((Bis(3-fluorophenyl)methyl)sulfinyl)acetamide] the inhibition (NET) was less than 50%.

In the case of Cc1ccc(C(c2ccc(C)cc2)[S+]([O-])CC(N)=O)cc1 (stereo not drawn) [5a, 2-((Di-p-tolylmethyl)sulfinyl)acetamide], the inhibition (NET) is reported as less than 50%.

With O=C(CSC(c1ccc(Br)cc1)c1ccc(Br)cc1)NCC1CC1 [4q, 2-((Bis(4-bromophenyl)methyl)thio)-N-(cyclopropylmethyl)acetamide] the inhibition (NET) was less than 50%.

With O=C(CSC(c1ccc(Cl)cc1)c1ccc(Cl)cc1)NCCCc1ccccc1 [4w, 2-((Bis(4-chlorophenyl)methyl)thio)-N-(3-phenylpropyl)acetamide] the “displacement at the SERT” value (SERT) was “no displacement” and the inhibition at 100 µM (NET) was less than 50%.

With NCCSC(c1ccc(Br)cc1)c1ccc(Br)cc1 [6c, 2-((Bis(4-bromophenyl)methyl)thio)ethan-1-amine] the “increase in SERT affinity vs unsubstituted analogue” value (SERT) was 9 fold and the “improvement in DAT affinity vs unsubstituted analogue” value (DAT) was 3 fold.

CNC(=O)C[S+]([O-])C(c1ccccc1)c1ccccc1 (stereo not drawn) [5f, 2-(Benzhydrylsulfinyl)-N-methylacetamide] was tested, and the inhibition (NET) was less than 50%.

With NC(=O)C[S+]([O-])C(c1cccc(Cl)c1)c1cccc(Cl)c1 (stereo not drawn) [5d, 2-((Bis(3-chlorophenyl)methyl)sulfinyl)acetamide] the inhibition (NET) was less than 50%.

In the case of O=C(CSC(c1ccc(F)cc1)c1ccc(F)cc1)NCCCc1ccccc1 [4v, 2-((Bis(4-fluorophenyl)methyl)thio)-N-(3-phenylpropyl)acetamide], the inhibition at 100 µM (NET) is reported as less than 50%.

— article PMC3954497 (Journal of Medicinal Chemistry, 2014)
